Molecular target: T1, cathepsin K (Homo sapiens, UniProt P43235)
T1 sequence (P43235 115-329): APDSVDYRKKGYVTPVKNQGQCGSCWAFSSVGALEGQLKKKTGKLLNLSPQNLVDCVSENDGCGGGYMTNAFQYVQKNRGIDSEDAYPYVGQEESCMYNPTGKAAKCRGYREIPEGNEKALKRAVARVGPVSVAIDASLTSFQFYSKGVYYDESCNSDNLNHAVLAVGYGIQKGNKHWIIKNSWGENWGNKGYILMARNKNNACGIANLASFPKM
Test: Cathepsin K inhibition studies (progress curve method, fluorogenic peptide substrate)
Assay type: biochemical
Conditions: human recombinant enzyme; substrate typically Cbz-Phe-Arg-AMC; 100 mM Na acetate pH 5.5, 20 mM cysteine, 5 mM EDTA, 10% DMSO
Protocol: Determination of Cathepsin K Proteolytic Catalytic Activity
All assays for cathepsin K were carried out with human recombinant enzyme. Standard assay conditions for the determination of kinetic constants used a fluorogenic peptide substrate, typically Cbz-Phe-Arg-AMC, and were determined in 100 mM Na acetate at pH 5.5 containing 20 mM cysteine and 5 mM EDTA. Stock substrate solutions were prepared at concentrations of 10 or 20 mM in DMSO with 20 uM final substrate concentration in the assays. All assays contained 10% DMSO. […] All assays were conducted at ambient temperature. Product fluorescence (excitation at 360 nm; emission at 460 nm) was monitored with a Perceptive Biosystems Cytofluor II fluorescent plate reader. […]
Potential inhibitors were evaluated using the progress curve method. […] For those compounds whose progress curves were linear, apparent inhibition constants (Ki,app) were calculated according to equation 1 (Brandt et al., Biochemitsry, 1989, 28, 140): […]
[AMC]=vsst+(v0−vss)[1−exp(−kobst)]/kobs (2) where [AMC] is the concentration of product formed over time t, v0 is the initial reaction velocity and vss is the final steady state rate. Values for kobs were then analyzed as a linear function of inhibitor concentration to generate an apparent second order rate constant (kobs/inhibitor concentration or kobs/[I]) describing the time-dependent inhibition. […]

CC(C)C[C@H](NS(=O)(=O)c1cccc2cccnc12)C(=O)NC1COCC1=O (stereo partly drawn) [4-(R,S)-Amino-N-[(8-quinolinesulfonyl)-S-leucine]-3-tetrahydrofuran-3-one]
Ki: > 10 µM

Source: patent publication US6369077B1, “Protease inhibitors” (SmithKline Beecham Corporation, priority 1997, dated 2002)
